Experimental data published in publication PMC6548547 (Journal of medicinal chemistry, 2018).
“Also recorded” adds a separate entry of the source. Like-named read-outs stand apart in the source and are kept apart here.

Experiments:
[1] = tested on: EBOV; conditions: cited from earlier work
[2] = tested on: NPC1 protein; assay type: cell-based
[3] = tested on: fibroblasts; assay type: cell-based
[4] = target: recombinant cathepsin L (Homo sapiens, UniProt P07711); assay: Cathepsin L assay; assay type: biochemical; conditions: 10 μM and dose-response
[5] = tested on: Ebola VLP; assay type: cell-based, Ebola virus
[6] = target: recombinant cathepsin B (Homo sapiens, UniProt P07858); assay: Cathepsin B assay; assay type: biochemical; conditions: 10 μM and dose-response
[7] = read-out: IC50 of previously reported EBOV inhibitors in vitro

Chain of recombinant cathepsin L (P07711 114-333): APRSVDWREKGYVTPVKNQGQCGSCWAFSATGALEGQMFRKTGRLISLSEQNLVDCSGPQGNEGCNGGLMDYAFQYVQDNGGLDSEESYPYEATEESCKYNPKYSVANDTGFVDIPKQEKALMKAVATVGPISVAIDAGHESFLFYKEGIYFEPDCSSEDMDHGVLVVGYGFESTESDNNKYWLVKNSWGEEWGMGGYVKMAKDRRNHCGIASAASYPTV

| SMILES | LysoTracker staining (enlargement of lysosome size) [3] | also measured |
| --- | --- | --- |
| Cc1cn(-c2cc(NC(=O)c3ccc(C)c(Nc4nccc(-c5cccnc5)n4)c3)cc(C(F)(F)F)c2)cn1 [nilotinib] | – | IC50 [1, 7]: 24300 nM |
| CCN(CC)CCO[C@H]1CC[C@@]2(C)C(=CC[C@@H]3[C@@H]2CC[C@]2(C)C(=O)CC[C@@H]32)C1.Cl [U18666A, 3-β-(2-[diethylamino]ethoxy)-androst-5-en-17-one, monohydrochloride] | increased LysoTracker staining | Cholesterol accumulation (filipin staining), impairment of NPC1 protein function [2]: increased filipin staining |
| Cc1ccc(CN2CCCN(C)C3(CCN(C)CC3)C2)cc1C [ZINC67869167] | increased LysoTracker staining; also recorded: induced enlargement of lysosomes | – |
| CC[C@]1(O)C[C@@H]2CN(CCc3c([nH]c4ccccc34)[C@@](C(=O)OC)(c3cc4c(cc3OC)N(C)[C@H]3[C@@](O)(C(=O)OC)[C@H](OC(C)=O)[C@]5(CC)C=CCN6CC[C@]43[C@@H]65)C2)C1 [Vinblastine] | – | IC50 ([1]; read-out: Published Compound (IC50)): 48 nM |
| CN1[C@@H]2CC[C@H]1C[C@@H](OC1c3ccccc3CCc3ccccc31)C2 [Deptropine] | increased LysoTracker staining | Inhibition of enzymatic activity of cathepsin L [4]: inhibited; also recorded: blocking cathepsin L activity |
| CCN(CC)CCNC(=O)c1c(C)[nH]c(/C=C2\C(=O)Nc3ccc(F)cc32)c1C [sunitinib] | – | IC50 [1, 7]: 1910 nM |
| CC[C@]1(O)C[C@@H]2CN(CCc3c([nH]c4ccccc34)[C@@](C(=O)OC)(c3cc4c(cc3OC)N(C)[C@H]3[C@@](O)(C(N)=O)[C@H](O)[C@]5(CC)C=CCN6CC[C@]43[C@@H]65)C2)C1 [Vindesine] | – | Potency [5]: nanomolar range |
| CC(C)(C)c1ccc(C(=O)CCCN2CCC(OC(c3ccccc3)c3ccccc3)CC2)cc1 [Ebastine] | increased LysoTracker staining | – |
| Cc1[nH]c2c(CN3CC(CO)C(CN4CCCC4)C3)cccc2c1C (centres unmarked) [ZINC91973695] | increased LysoTracker staining; also recorded: induced enlargement of lysosomes | – |
| COc1cc2c(Oc3ccc4[nH]c(C)cc4c3F)ncnc2cc1OCCCN1CCCC1 [Cediranib] | increased LysoTracker staining | – |
| COC(=O)Nc1nc2ccc(C(=O)c3cccs3)cc2[nH]1 [nocodazole] | – | IC50 of previously reported EBOV inhibitors in vitro [1]: sub-micromolar |
| COc1cc2nc(N3CCCN(C)CC3)nc(NC3CCN(Cc4ccccc4)CC3)c2cc1OC [BIX-01294] | increased LysoTracker staining | Potency [5]: nanomolar range; also recorded: sub-micromolar |
| COc1ccc2cc1Oc1ccc(cc1)C[C@H]1c3cc(c(OC)cc3CCN1C)Oc1c(OC)c(OC)cc3c1[C@H](C2)N(C)CC3 [Tetrandrine] | increased LysoTracker staining | – |
| CN(C)c1ccccc1CN1CCCN(Cc2ccccc2N(C)C)C1c1ccncc1 [GANT61] | increased LysoTracker staining; also recorded: caused enlargement of lysosomes | Inhibition of enzymatic activity of cathepsin B [6]: inhibited; Inhibition of enzymatic activity of cathepsin L [4]: inhibited |
| CC(=O)N(C)C1(c2ccccc2)CCN(CCC[C@]2(c3ccc(Cl)c(Cl)c3)CCCN(C(=O)c3ccccc3)C2)CC1 [Osanetant] | increased LysoTracker staining; also recorded: induces the enlargement of lysosomes | – |
